How the values were obtained:
[1] = tested on: barnyardgrass; assay: Test B pre-/postemergence herbicide test; format: in vivo, Echinochloa crus-galli; conditions: for Barnyardgrass plant response rating: scale 0 (no effect) to 100 (complete control)
Procedure, shortened: (§1)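 Visual rating, 0 (no effect) to 100 (complete control), versus untreated controls after 13–15 d in greenhouse. Pre- and postemergence applications (postemergence plants 2–18 cm, 1–4 leaves); flooded paddy arm at 2-leaf stage. Compounds in non-phytotoxic solvent plus surfactant.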

[2] = tested on: Surinam grass; assay: Test B pre-/postemergence herbicide test; format: in vivo, Urochloa decumbens
Procedure, shortened: as §1

[3] = tested on: cocklebur; assay: Test B pre-/postemergence herbicide test; format: in vivo, Xanthium strumarium; conditions: for Cocklebur plant response rating: scale 0 (no effect) to 100 (complete control)
Procedure, shortened: as §1

[4] = tested on: corn; assay: Test B pre-/postemergence herbicide test; format: in vivo, Zea mays
Procedure, shortened: as §1

[5] = tested on: large crabgrass; assay: Test B pre-/postemergence herbicide test; format: in vivo, Digitaria sanguinalis
Procedure, shortened: as §1

[6] = tested on: giant foxtail; assay: Test B pre-/postemergence herbicide test; format: in vivo, Setaria faberi
Procedure, shortened: as §1

[7] = tested on: lambsquarters; assay: Test B pre-/postemergence herbicide test; format: in vivo, Chenopodium album
Procedure, shortened: as §1

[8] = tested on: morningglory; assay: Test B pre-/postemergence herbicide test; format: in vivo, Ipomoea coccinea
Procedure, shortened: as §1

[9] = tested on: pigweed; assay: Test B pre-/postemergence herbicide test; format: in vivo, Amaranthus retroflexus
Procedure, shortened: as §1

[10] = tested on: rice; assay: Test B pre-/postemergence herbicide test; format: in vivo, Oryza sativa; conditions: 0 = no effect, 100 = complete control, preemergence
Excerpt: Seeds selected from barnyardgrass (Echinochloa crus-galli (L.) Beauv.), Surinam grass (Urochloa decumbens (Staph) R. D. Webster, previously named Brachiaria decumbens Stapf), cocklebur (Xanthium strumarium L.), corn (Zea mays L.), large crabgrass (Digitaria sanguinalis (L.) Scop.), giant foxtail (Setaria faberi Herim.), lambsquarters (Chenopodium album L.), morningglory (Ipomoea coccinea L.), pigweed (Amaranthus retroflexus L.), rice (Oryza sativa L.) and velvetleaf (Abutilon theophrasti Medik.) were planted and treated preemergence with test chemicals formulated in a non-phytotoxic solvent mixture which included a surfactant.
At the same time, plants selected from these crop and weed species and also blackgrass (Alopecurus myosuroides Huds.), wheat (Triticum aestivum L.) and wild oat (Avena fatua L.) were treated with postemergence applications of test chemicals formulated in the same manner. Plants ranged in height from 2 to 18 cm (1- to 4-leaf stage) for postemergence treatments. Plant species in the flooded paddy test consisted of rice (Oryza sativa L.), small flower umbrella sedge (Cyperus difformis L.), ducksalad (Heteranthera limosa (Sw.) Willd.) and barnyardgrass (Echinochloa crus-galli (L.) Beauv.) grown to the 2-leaf stage for testing. Treated plants and controls were maintained in a greenhouse for 13 to 15 days, after which time all species were compared to controls and visually evaluated. Plant response ratings, summarized in Table B, are based on a scale of 0 to 100 where 0 is no effect and 100 is complete control. A dash (-) response means no test result.

[11] = tested on: velvetleaf; assay: Test B pre-/postemergence herbicide test; format: in vivo, Abutilon theophrasti
Procedure, shortened: as §1

[12] = tested on: blackgrass; assay: Test B postemergence herbicide test; format: in vivo, Alopecurus myosuroides; conditions: scale 0 (no effect) to 100 (complete control)
Procedure, shortened: (§2)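 Visual ratings, 0 (no effect) to 100 (complete control), made versus controls after 13–15 d greenhouse. Paddy plants treated at 2-leaf stage; postemergence plants at 1- to 4-leaf stage, 2–18 cm tall.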

[13] = tested on: wheat; assay: Test B postemergence herbicide test; format: in vivo, Triticum aestivum; parameters: key to Wheat plant response rating: 0 = no effect, 100 = complete control
Procedure, shortened: as §2

[14] = tested on: wild oat; assay: Test B postemergence herbicide test; format: in vivo, Avena fatua
Procedure, shortened: as §2

[15] = tested on: rice; assay: Test B flooded paddy test; format: in vivo, Oryza sativa; conditions: 1000 g ai/ha, scale 0 to 100 (0 no effect, 100 complete control)
Procedure, shortened: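 Read-out: visual comparison with controls, scored 0 to 100, where 100 means complete control and 0 no effect. Formulated chemicals were applied postemergence to plants 2–18 cm tall (1- to 4-leaf), or to flooded-paddy plants at the 2-leaf stage, then held 13 to 15 days under glass.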

[16] = tested on: small flower umbrella sedge; assay: Test B flooded paddy test; format: in vivo, Cyperus difformis; conditions: 1000 g ai/ha, scale 0 to 100 (0 no effect, 100 complete control)
Procedure, shortened: as §2

[17] = tested on: ducksalad; assay: Test B flooded paddy test; format: in vivo, Heteranthera limosa; conditions: 1000 g ai/ha, scale 0 to 100 (0 no effect, 100 complete control)
Procedure, shortened: as §2

[18] = tested on: barnyardgrass; assay: Test B flooded paddy test; format: in vivo, Echinochloa crus-galli; conditions: 1000 g ai/ha, scale 0 to 100 (0 no effect, 100 complete control)
Procedure, shortened: as §2

[19] = tested on: rice; assay: Test C flooded paddy test; format: in vivo, Oryza sativa
Procedure, shortened: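 Postemergence sprays applied to plants 2 to 18 cm tall (1- to 4-leaf stage); paddy species grown to 2-leaf stage under flooding. After 12 to 14 days in greenhouse, visual rating versus untreated controls on 0–100 scale (0 no effect, 100 complete control).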

[20] = tested on: smallflower umbrella sedge; assay: Test C flooded paddy test; format: in vivo, Cyperus difformis
[21] = tested on: ducksalad; assay: Test C flooded paddy test; format: in vivo, Heteranthera limosa
[22] = tested on: barnyardgrass; assay: Test C flooded paddy test; format: in vivo, Echinochloa crus-galli
Procedure, shortened: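 Injury scored visually against controls on a 0 (no effect) to 100 (complete control) scale, 12 to 14 days after treatment in greenhouse. Flooded paddy plants treated at 2-leaf stage; postemergence plants at 1- to 4-leaf stage, 2 to 18 cm tall.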

[23] = 125 g ai/ha, 0 = no effect, 100 = complete control, preemergence
[24] = 500 g ai/ha, visual rating, 0 = no effect, 100 = complete control, preemergence
[25] = postemergence, 125 g ai/ha, visual rating
[26] = postemergence, 500 g ai/ha, visual rating
[27] = postemergence, 125 g ai/ha, visual rating, scale 0 (no effect) to 100 (complete control)
[28] = postemergence, 500 g ai/ha, scale 0 to 100, 0 is no effect, 100 is complete control
[29] = 125 g ai/ha, 0 is no effect, 100 is complete control, preemergence
[30] = 125 g ai/ha, visual rating, postemergence
[31] = 125 g ai/ha, visual rating, scale 0 (no effect) to 100 (complete control), postemergence
[32] = Postemergence, 500 g ai/ha, scale 0 (no effect) to 100 (complete control)
[33] = 125 g ai/ha, scale 0 to 100 (0 no effect, 100 complete control)
[34] = 250 g ai/ha, scale of 0 to 100, 0 is no effect, 100 is complete control
[35] = 500 g ai/ha, visual rating after 12 to 14 days, scale 0 to 100 (0 no effect, 100 complete control)

## CCN(C)C(=O)c1cc(NC(=O)c2cc(C(C)(C)C)nn2CC)c(F)cc1F [Compound 254]
[1]; [23]
  Barnyardgrass plant response rating (0 to 100 scale): 0
[1]; [24]
  Plant response rating, Barnyardgrass: 40
[1]; [25]
  Barnyardgrass plant response rating: 0
[1]; [26]
  Barnyardgrass plant response rating: 10
[2]; [23]
  Surinam Grass plant response rating (0 to 100 scale): 0
[2]; [24]
  Plant response rating, Surinam Grass: 40
[2]; [27]
  Surinam Grass plant response rating: 10
[2]; [28]
  Surinam Grass plant response rating: 10
[3]; [23]
  Cocklebur plant response rating (0 to 100 scale): 0
[3]; [24]
  Plant response rating, Cocklebur: 0
[3]; [25]
  Cocklebur plant response rating: 20
[3]; [26]
  Cocklebur plant response rating: 20
[4]; [23]
  Corn plant response rating (0 to 100 scale): 0
[4]; [24]
  Plant response rating, Corn: 0
[4]; [27]
  Corn plant response rating: 0
[4]; [28]
  Corn plant response rating: 10
[5]; [23]
  Crabgrass, Large plant response rating (0 to 100 scale): 10
[5]; [24]
  Plant response rating, Crabgrass, Large: 100
[5]; [27]
  Crabgrass, Large plant response rating: 10
[5]; [28]
  Crabgrass, Large plant response rating: 10
[6]; [23]
  Foxtail, Giant plant response rating (0 to 100 scale): 0
[6]; [24]
  Plant response rating, Foxtail, Giant: 30
[6]; [27]
  Foxtail, Giant plant response rating: 0
[6]; [28]
  Foxtail, Giant plant response rating: 0
[7]; [24]
  Plant response rating, Lambsquarters: 100
[7]; [27]
  Lambsquarters plant response rating: 10
[7]; [28]
  Lambsquarters plant response rating: 20
[8]; [23]
  Morningglory plant response rating (0 to 100 scale): 0
[8]; [24]
  Plant response rating, Morningglory: 10
[8]; [27]
  Morningglory plant response rating: 20
[8]; [28]
  Morningglory plant response rating: 30
[9]; [23]
  Pigweed plant response rating (0 to 100 scale): 0
[9]; [24]
  Plant response rating, Pigweed: 100
[9]; [27]
  Pigweed plant response rating: 10
[9]; [28]
  Pigweed plant response rating: 30
[10]; 125 g ai/ha
  Rice plant response rating (0 to 100 scale): 0
[10]; 500 g ai/ha, visual rating
  Plant response rating, Rice: 20
[11]; [23]
  Velvetleaf plant response rating (0 to 100 scale): 0
[11]; [24]
  Plant response rating, Velvetleaf: 20
[11]; [27]
  Velvetleaf plant response rating: 10
[11]; [28]
  Velvetleaf plant response rating: 10
[12]; [25]
  Blackgrass plant response rating: 0
[12]; [26]
  Blackgrass plant response rating: 10
[13]; [27]
  Wheat plant response rating: 10
[13]; [28]
  Wheat plant response rating: 20
[14]; [27]
  Oat, Wild plant response rating: 20
[14]; [28]
  Oat, Wild plant response rating: 20
[15]
  Rice plant response rating: 80
[16]
  Sedge, Umbrella plant response rating: 60
[17]
  Ducksalad plant response rating: 90
[18]
  Barnyardgrass plant response rating: 30

## CCNC(=O)c1cccc(NC(=O)c2nn(C(C)C)nc2C)c1 [Compound 405]
[1]; [29]
  Plant response rating (0 to 100 scale), Barnyardgrass: 10
[1]; [30]
  Barnyardgrass plant response rating: 10
[1]; Postemergence, 500 g ai/ha
  Barnyardgrass plant response rating: 10
[2]; [29]
  Plant response rating (0 to 100 scale), Surinam Grass: 0
[2]; [31]
  Surinam Grass plant response rating: 0
[2]; [32]
  Surinam Grass plant response rating: 10
[3]; [29]
  Plant response rating (0 to 100 scale), Cocklebur: 0
[3]; [30]
  Cocklebur plant response rating: 10
[3]; Postemergence, 500 g ai/ha
  Cocklebur plant response rating: 20
[4]; [29]
  Plant response rating (0 to 100 scale), Corn: 0
[4]; [31]
  Corn plant response rating: 10
[4]; [32]
  Corn plant response rating: 10
[5]; [29]
  Plant response rating (0 to 100 scale), Crabgrass, Large: 30
[5]; [31]
  Crabgrass, Large plant response rating: 10
[5]; [32]
  Crabgrass, Large plant response rating: 20
[6]; [29]
  Plant response rating (0 to 100 scale), Foxtail, Giant: 0
[6]; [31]
  Foxtail, Giant plant response rating: 0
[6]; [32]
  Foxtail, Giant plant response rating: 20
[7]; [29]
  Plant response rating (0 to 100 scale), Lambsquarters: 70
[7]; [31]
  Lambsquarters plant response rating: 50
[7]; [32]
  Lambsquarters plant response rating: 70
[8]; [29]
  Plant response rating (0 to 100 scale), Morningglory: 30
[8]; [31]
  Morningglory plant response rating: 20
[8]; [32]
  Morningglory plant response rating: 60
[9]; [29]
  Plant response rating (0 to 100 scale), Pigweed: 10
[9]; [31]
  Pigweed plant response rating: 30
[9]; [32]
  Pigweed plant response rating: 50
[11]; [29]
  Plant response rating (0 to 100 scale), Velvetleaf: 0
[11]; [31]
  Velvetleaf plant response rating: 10
[11]; [32]
  Velvetleaf plant response rating: 30
[12]; [30]
  Blackgrass plant response rating: 0
[12]; Postemergence, 500 g ai/ha
  Blackgrass plant response rating: 10
[13]; [31]
  Wheat plant response rating: 0
[13]; 500 g ai/ha, scale 0 to 100, 0 no effect, 100 complete control, preemergence
  Wheat plant response rating: 20
[13]; [32]
  Wheat plant response rating: 0
[14]; [31]
  Oat, Wild plant response rating: 0
[14]; [32]
  Oat, Wild plant response rating: 10
[15]
  Rice plant response rating: 50
[16]
  Sedge, Umbrella plant response rating: 90
[17]
  Ducksalad plant response rating: 80
[18]
  Barnyardgrass plant response rating: 40
[19]; 62 g ai/ha, scale 0 to 100
  Rice plant response rating: 0
[19]; [33]
  Rice plant response rating: 0
[19]; [34]
  Rice plant response rating: 0
[19]; [35]
  Plant response rating, Rice: 20
[20]; 62 g ai/ha, scale 0 to 100
  Sedge, Umbrella plant response rating: 40
[20]; [33]
  Sedge, Umbrella plant response rating: 50
[20]; [34]
  Sedge, Umbrella plant response rating: 70
[20]; [35]
  Plant response rating, Sedge, Umbrella: 70
[21]; 62 g ai/ha, scale 0 to 100
  Ducksalad plant response rating: 0
[21]; [33]
  Ducksalad plant response rating: 0
[21]; [34]
  Ducksalad plant response rating: 20
[21]; [35]
  Plant response rating, Ducksalad: 30
[22]; 62 g ai/ha, scale 0 to 100 (0 no effect, 100 complete control)
  Barnyardgrass plant response rating: 0
[22]; [33]
  Barnyardgrass plant response rating: 0
[22]; [34]
  Barnyardgrass plant response rating: 0
[22]; [35]
  Plant response rating, Barnyardgrass: 20

Reference: US20060069132A1, “Azolecarboxamide herbicides” (priority 2004, published 2006)
